“And” between values parts separate entries of the source, which are not always exact repeats. Equal values may be shown once. Read-outs that look alike come from different tables or passages of the source.
Columns and labels:
[1] = LNP size and polydispersity index (PDI) by dynamic light scattering (Zetasizer); type: physicochemical; details: for Size (nm): Formulation No. 001 (Ionizable lipid:DSPC:cholesterol:DMG-PEG2000 = 50:10:38.5:1.5, N/P 6), RNA No. 331
Protocol: (§1) The LNP size and polydispersity index (PDI), determined by dynamic light scattering (DLS), and zeta potential were measured by a Zetasizer machine (Malvern). RNA concentration and encapsulation efficacy (EE %) were analyzed by the Quant-IT Ribogreen kit by calculating the percentage encapsulation at 100%—(RNA-LNPs/RNA-LNPs with Triton X-100).

[2] = RNA encapsulation efficacy (EE %) by Quant-IT Ribogreen kit; type: physicochemical; details: LNP
Protocol: as §1

Hep G2 cells [3] = assay: In vitro expression: luciferase activity in Hep G2 cells transfected with RNA-LNPs; type: cell-based; details: Formulation No. 001, RNA No. 331 (firefly-luciferase), 100 ng/mL RNA-LNPs, 72 hours post transfection
Protocol: 2E5 Hep G2 cells were transfected with 100 ng/mL of RNA-LNPs encoding for firefly-luciferase. At 72 hours post transfection, the cells were washed and lysed. The luciferase expression (2-well repeat) was determined in the cell lysates with the luciferase assay reagent kit (Promega), according to the kit protocol, luciferase activity was measured by a luminometer.

Hep G2 cells [4] = assay: In vitro toxicity: Hep G2 cell viability by CellTiter-Glo; type: cell-based; details: Formulation No. 001, RNA No. 331, 1 μg/mL RNA-LNPs, 72 hours post transfection, cell only = 100%
Protocol: 2E5 Hep G2 cells were transfected with 1 μg/mL RNA-LNPs. At 72 hours post transfection, cell viability (2-well repeat) was determined with the CellTiter-Glo® reagent kit, according to the kit protocol, measured by a luminometer. Cell only as control (100%).
The cell viability was calculated according to the following formula: […]

Balb/c mice = assay: In vivo expression by IV, 0.05 mg/kg luciferase RNA-LNPs, IVIS luminescence
Protocol: (§2) 7-8 week old, female Balb/c mice (N=3) were injected with 0.05 mg*kg−1 of RNA-LNPs encoding for firefly-luciferase by intravenous injection. At 24- and 72-hours post injection, animals were intraperitoneally injected with 15 mg/mi of Luciferin substrate and whole-body luminescence was determined by a bioluminescent in vivo imaging system (IVIS).
as §2, with “24-hours” for “24- and 72-hours”, “mg/ml” for “mg/mi”, “whole-body/liver/spleen” for “whole-body”

MCP-1 = assay: In vivo tolerability by IV: serum MCP-1 by Luminex; set-up: species or system C57BL/6J mice; details: IV 1.0 mg/kg, male C57BL/6J mice N=3, Formulation 001, RNA 331
Protocol: (§3) 6-8 week old, male C57BL/6J mice (N=3) were injected with 1.0 mg*kg/1 of RNA-LNPs encoding for firefly-luciferase by intravenous injection. At 2- and 24-hours post injection, about 40 μL blood was harvested and immediately added to the procoagulant containing tube. Stand for 30 min at room temperature and then centrifuged at 2500 g×10 min to obtain serum. About 15 μL serum samples were aliquoted for cytokine (MCP-1 and IL-6) detection by Luminex (ProcartaPlex Mouse 2-plex, Thermo). PBS group as negative control.
as §3, with “mg*kg−1” for “mg*kg/1”

IL-6 = assay: In vivo tolerability by IV: serum IL-6 by Luminex; set-up: species or system C57BL/6J mice; details: IV 1.0 mg/kg, male C57BL/6J mice N=3, Formulation 001, RNA 331
Protocol: as §3
as §3, with “mg*kg−1” for “mg*kg/1”

C57BL/6J mice = assay: In vivo expression by IV, 1.0 mg/kg luciferase RNA-LNPs, whole-body and organ IVIS luminescence; details: IV 1.0 mg/kg, 24 h post injection, male C57BL/6J mice N=3, Formulation 001, RNA 331
Protocol: (§4) 6-8 week old, male C57BL/6J mice (N=3) were injected with 1.0 mg*kg−1 of RNA-LNPs encoding for firefly-luciferase by intravenous injection. At 24-hours post injection, animals were intraperitoneally injected with 15 mg/ml of Luciferin substrate and whole-body/liver/spleen/kidney/small intestine/large intestine luminescence were determined by a bioluminescent in vivo imaging system (IVIS).
as §4, with “mg/nil” for “mg/ml”

[5] = In vivo lipid metabolism by IV: ionizable lipid concentration in plasma and liver by LC-MS/MS; set-up: species or system Sprague-Dawley (SD) rats; details: IV 0.15 mg/kg RNA-LNPs (hEPO), male SD rats, individual animals N=3
Protocol: In Vivo Lipid Metabolism by IV 7-8 week old, male Sprague-Dawley (SD) rats (N=3) were injected with 0.15 mg*kg−1 of RNA-LNPs encoding for hEPO by intravenous injection. At 1-/6-/96-/168-hours post injection, about 100 μL blood will be harvested and immediately added to the EDTAK2 containing tube. Place on wet ice and then centrifuged at 3000 g×5 min to obtain plasma. 30 μL plasma will be aliquoted to the 1.5 mL tubes. At terminal 6-/168-hours post injection, the rats will be euthanized with CO2, hemorrhaged immediately with cardiac puncture, respectively. The livers were harvested, weighed and washed with saline, then put into 50 ml centrifuge tube placed in liquid nitrogen, then transferred into wet ice, and finally stored at −80° C. immediately. Both plasma and liver samples were used for ionizable lipid concentration quantification by LC-MS/MS. The lower limit of quantitation (LLOQ) is 1 ng/mL in plasma or 11 ng/g in liver. BQL—Below the lower limit of quantitation (LLOQ).

[6] = Formulation No. 001, RNA No. 331
[7] = Formulation No. 001, RNA No. 331, female Balb/c mice, 0.05 mg*kg−1 intravenous, 24-hours post injection
[8] = Formulation No. 001, RNA No. 019 (hEPO)
[9] = IV 0.05 mg/kg, 24 h post injection, female Balb/c mice N=3, Formulation 001, RNA 331
[10] = male, Sprague-Dawley, rat, liver, iv, 0.15 mg/kg, 6 h post injection, read-out: Liver (ng/g), ionizable lipid concentration
[11] = male, Sprague-Dawley, rat, plasma, iv, 0.15 mg/kg, 1 h post injection
[12] = male, Sprague-Dawley, rat, plasma, iv, 0.15 mg/kg, 6 h post injection, read-out: Plasma (ng/mL), ionizable lipid concentration

| SMILES | Size (nm) [1] | PDI [1, 6] | EE (%) [2, 6] | In vitro Expression (Mean) (Hep G2 cells [3]) | In vitro cell viability (%) (Mean) (Hep G2 cells [4]) | Liver (p/s) (Mean) (Balb/c mice; [7]) | Spleen (p/s) (Mean) (Balb/c mice; [7]) | Whole body (p/s) (Mean) (Balb/c mice; [7]) | PDI [1, 8] | Size [1, 8] | Size [1, 6] | EE (%) [2, 8] | Liver (p/s) (Mean) (Balb/c mice; [9]) | Spleen (p/s) (Mean) (Balb/c mice; [9]) | Whole body (p/s) (Mean) (Balb/c mice; [9]) | MCP-1 at 2 h (MCP-1) | MCP-1 at 24 h (MCP-1) | IL-6 at 2 h (IL-6) | IL-6 at 24 h (IL-6) | Kidney (p/s) (C57BL/6J mice) | further results |
| --- | --- | --- | --- | --- | --- | --- | --- | --- | --- | --- | --- | --- | --- | --- | --- | --- | --- | --- | --- | --- | --- |
| CCCCCCCCC(CCCCCCCC)OC(=O)CCCCCCCOC(=O)C(COC(=O)NCCN1CCCCCC1)NC(=O)OCCCCCCCCOC(=O)C(CCCCCC)CCCCCCCC (stereo not drawn) [Lipid 897] | 60.19 nm | 0.04 | 95.30% | 1.77E+05 | 88.39% | 1.67E+08 p/s | 7.67E+07 p/s | 8.36E+08 p/s | – | – | – | – | – | – | – | – | – | – | – | – | – |
| CCCCC/C=C\C/C=C\CCCCCCCCOC(=O)NC(COC(=O)NCCN1CCCC1)C(=O)OCCCCCC(=O)OCC(CCCCCCCC)CCCCCCCCCC (stereo not drawn) [Lipid 909] | 74.26 nm | 0.02 | 98.41% | 7.29E+04 | 94.80% | 7.57E+07 p/s | 2.35E+07 p/s | 7.25E+08 p/s | – | – | – | – | – | – | – | – | – | – | – | – | – |
| CCCCCCCCCCCOC(=O)NC(COC(=O)NCCN(C)C)C(=O)OCCCCCCCC(=O)OC(CCCCCCCC)CCCCCCCC (stereo not drawn) [Lipid 912] | 74.18 nm | 0.03 | 97.83% | 4.57E+04 | 92.96% | 1.67E+07 p/s | 7.97E+06 p/s | 8.26E+07 p/s | – | – | – | – | – | – | – | – | – | – | – | – | – |
| CCCCCCCCCC(=O)OCCCCCCCOC(=O)C(COC(=O)NCCN(C)C)NC(=O)OCCCCCCCCOC(=O)C(CCCCCC)CCCCCCCC (stereo not drawn) [Lipid 930] | 92.24 nm | 0.04 | 97.46% | 8.27E+03 | 92.08% | 3.49E+07 p/s | 6.28E+06 p/s | 1.31E+08 p/s | – | – | – | – | – | – | – | – | – | – | – | – | – |
| CCCCCCCCCCC(CCCCCCCC)COC(=O)CCCCCOC(=O)NC(COC(=O)NCCN1CCCCC1)C(=O)OCCCCCC(=O)OCC(CCCCCCCC)CCCCCCCCCC (stereo not drawn) [Lipid 1020] | – | 0.01 | 94.34% | – | – | – | – | – | 0.06 | 55.95 nm | 57.55 nm | 97.29% | 1.38E+08 p/s | 2.67E+07 p/s | 4.91E+08 p/s | 1930 pg/mL | 180 pg/mL | 90.5 pg/mL | 1.07 pg/mL | 5.29E+07 p/s | Large intestine (p/s) (C57BL/6J mice): 2.16E+08 p/s; Liver (p/s) (C57BL/6J mice): 1.90E+10 p/s; Small intestine (p/s) (C57BL/6J mice): 1.62E+09 p/s; Spleen (p/s) (C57BL/6J mice): 1.14E+09 p/s; Whole body (p/s) (C57BL/6J mice): 9.25E+09 p/s; Plasma (ng/mL), ionizable lipid concentration ([5]; 1 h post injection): 2412 ng/mL and 2622 ng/mL; Liver (ng/g), ionizable lipid concentration ([5]; 6 h post injection): 38824 ng/g and 43259 ng/g; Plasma (ng/mL), ionizable lipid concentration ([5]; 6 h post injection): 1241 ng/mL and 1471 ng/mL; Plasma (ng/mL), ionizable lipid concentration ([5]; 96 h post injection): 31.2 ng/mL and 26.1 ng/mL; Liver (ng/g), ionizable lipid concentration ([5]; 168 h post injection): 2432 ng/g and 1960 ng/g; Plasma (ng/mL), ionizable lipid concentration ([5]; 168 h post injection): 7.35 ng/mL and 11.3 ng/mL and 4.48 ng/mL; concentration at 6 h [5, 10]: 36500 ng/g; concentration at 168 h ([5]; male, Sprague-Dawley, rat, liver, iv, 0.15 mg/kg, 168 h post injection, read-out: Liver (ng/g), ionizable lipid concentration): 2890 ng/g; concentration at 1 h [5, 11]: 2420 ng/mL; concentration at 6 h [5, 12]: 1210 ng/mL; concentration at 96 h ([5]; male, Sprague-Dawley, rat, plasma, iv, 0.15 mg/kg, 96 h post injection): 33.6 ng/mL |
| CCCCCCCCCCC(CCCCCCCC)COC(=O)CCCCCOC(=O)NC(COC(=O)NCCN1CCCCCC1)C(=O)OCCCCCC(=O)OCC(CCCCCCCC)CCCCCCCCCC (stereo not drawn) [Lipid 1021] | – | 0.05 | 93.55% | – | – | – | – | – | 0.04 | 57.55 nm | 57.55 nm | 96.60% | 1.19E+08 p/s | 5.32E+07 p/s | 8.26E+08 p/s | 1560 pg/mL | 166 pg/mL | 28.6 pg/mL | 0.639 pg/mL | 5.69E+07 p/s | Large intestine (p/s) (C57BL/6J mice): 1.91E+08 p/s; Liver (p/s) (C57BL/6J mice): 1.88E+10 p/s; Small intestine (p/s) (C57BL/6J mice): 1.60E+09 p/s; Spleen (p/s) (C57BL/6J mice): 6.45E+08 p/s; Whole body (p/s) (C57BL/6J mice): 1.48E+10 p/s; Plasma (ng/mL), ionizable lipid concentration ([5]; 1 h post injection): 2558 ng/mL and 2938 ng/mL; Liver (ng/g), ionizable lipid concentration ([5]; 6 h post injection): 33582 ng/g and 37570 ng/g; Plasma (ng/mL), ionizable lipid concentration ([5]; 6 h post injection): 976 ng/mL and 1347 ng/mL; Plasma (ng/mL), ionizable lipid concentration ([5]; 96 h post injection): 23.9 ng/mL and 5.16 ng/mL and 9.41 ng/mL; Liver (ng/g), ionizable lipid concentration ([5]; 168 h post injection): 3103 ng/g and 1228 ng/g and 1508 ng/g; Plasma (ng/mL), ionizable lipid concentration ([5]; 168 h post injection): 6.98 ng/mL and 1.89 ng/mL; concentration at 6 h [5, 10]: 48100 ng/g; concentration at 1 h [5, 11]: 3280 ng/mL; concentration at 6 h [5, 12]: 1480 ng/mL |
